Results taken from US7074789B2, “Kinase inhibitors” (Amgen Inc., priority 1999, dated 2006).

Tests used:
Assay type in all cases: biochemical
[1] = target: T1, Fyn (Homo sapiens, UniProt P06241); assay: Kinase inhibition assay (33P transfer), Fyn; conditions: read-out: Fyn-1
T1 construct: Kinases are expressed as either kinase domains or full length constructs; made in house
Summary of the method: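 Recombinant kinase domains or full-length GST- or His-tagged constructs, from E. coli or baculovirus/High Five cells, sometimes with regulatory polypeptides. Transfer of 33P from ATP to plate-bound poly(Glu,Tyr) 4:1 or poly(Arg,Ser) 3:1 counted by liquid scintillation after phosphoric acid wash; IC50 is the concentration halving incorporation.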

[2] = target: T2, Zap-70 (Homo sapiens, UniProt P43403); assay: Kinase inhibition assay (33P transfer), Zap-70; conditions: Table 3; read-out: Zap-1
T2 construct: Kinases are expressed as either kinase domains or full length constructs; made in house
T2 sequence (P43403 1-619): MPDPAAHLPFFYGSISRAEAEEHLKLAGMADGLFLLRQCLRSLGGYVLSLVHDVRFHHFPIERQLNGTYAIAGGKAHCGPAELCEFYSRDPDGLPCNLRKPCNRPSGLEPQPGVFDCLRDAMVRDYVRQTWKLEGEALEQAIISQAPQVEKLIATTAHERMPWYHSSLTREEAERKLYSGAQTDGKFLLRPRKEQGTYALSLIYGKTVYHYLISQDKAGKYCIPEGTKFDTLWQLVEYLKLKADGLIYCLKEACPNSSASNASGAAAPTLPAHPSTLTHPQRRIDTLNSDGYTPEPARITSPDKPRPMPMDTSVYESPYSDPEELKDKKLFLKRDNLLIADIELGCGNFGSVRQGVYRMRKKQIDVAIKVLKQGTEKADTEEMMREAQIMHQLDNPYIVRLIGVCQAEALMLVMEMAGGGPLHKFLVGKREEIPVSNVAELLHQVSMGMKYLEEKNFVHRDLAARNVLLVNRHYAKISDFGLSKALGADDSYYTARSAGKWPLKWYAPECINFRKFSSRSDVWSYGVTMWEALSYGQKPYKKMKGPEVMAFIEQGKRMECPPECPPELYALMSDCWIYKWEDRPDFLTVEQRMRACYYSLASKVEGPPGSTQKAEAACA
Summary of the method: (§1)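 Kinase domain or full-length constructs, GST- or polyHis-tagged, expressed in E. coli or baculovirus-High Five cells, sometimes with regulatory polypeptides. Activity measured as 33PO4 transfer from ATP to plate-bound poly(Glu,Tyr) 4:1 or poly(Arg,Ser) 3:1; after incubation, plates washed with 0.5% phosphoric acid and counted by liquid scintillation.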

[3] = target: T3, Kdr (Homo sapiens, UniProt P35968); assay: Kinase inhibition assay (33P transfer), Kdr; conditions: Table 3; read-out: KDR-1
T3 construct: Kinases are expressed as either kinase domains or full length constructs; made in house
Summary of the method: as §1

[4] = target: T4, IGFR-1 (Homo sapiens, UniProt P08069); assay: Kinase inhibition assay (33P transfer), IGFR-1; conditions: Table 2, kinase inhibition class
T4 construct: Kinases are expressed as either kinase domains or full length constructs; made in house

[5] = target: T5, PDGFRB (Homo sapiens, UniProt P09619); assay: Kinase inhibition assay (33P transfer), PDGFRB; conditions: read-out: PDGFRB-1
T5 construct: Kinases are expressed as either kinase domains or full length constructs; made in house

[6] = target: T6, EPHB4 (Homo sapiens, UniProt P54760); assay: Kinase inhibition assay (33P transfer), EPHB4; conditions: read-out: EPHB4-1
T6 construct: Kinases are expressed as either kinase domains or full length constructs; made in house
T6 sequence (P54760 16-987): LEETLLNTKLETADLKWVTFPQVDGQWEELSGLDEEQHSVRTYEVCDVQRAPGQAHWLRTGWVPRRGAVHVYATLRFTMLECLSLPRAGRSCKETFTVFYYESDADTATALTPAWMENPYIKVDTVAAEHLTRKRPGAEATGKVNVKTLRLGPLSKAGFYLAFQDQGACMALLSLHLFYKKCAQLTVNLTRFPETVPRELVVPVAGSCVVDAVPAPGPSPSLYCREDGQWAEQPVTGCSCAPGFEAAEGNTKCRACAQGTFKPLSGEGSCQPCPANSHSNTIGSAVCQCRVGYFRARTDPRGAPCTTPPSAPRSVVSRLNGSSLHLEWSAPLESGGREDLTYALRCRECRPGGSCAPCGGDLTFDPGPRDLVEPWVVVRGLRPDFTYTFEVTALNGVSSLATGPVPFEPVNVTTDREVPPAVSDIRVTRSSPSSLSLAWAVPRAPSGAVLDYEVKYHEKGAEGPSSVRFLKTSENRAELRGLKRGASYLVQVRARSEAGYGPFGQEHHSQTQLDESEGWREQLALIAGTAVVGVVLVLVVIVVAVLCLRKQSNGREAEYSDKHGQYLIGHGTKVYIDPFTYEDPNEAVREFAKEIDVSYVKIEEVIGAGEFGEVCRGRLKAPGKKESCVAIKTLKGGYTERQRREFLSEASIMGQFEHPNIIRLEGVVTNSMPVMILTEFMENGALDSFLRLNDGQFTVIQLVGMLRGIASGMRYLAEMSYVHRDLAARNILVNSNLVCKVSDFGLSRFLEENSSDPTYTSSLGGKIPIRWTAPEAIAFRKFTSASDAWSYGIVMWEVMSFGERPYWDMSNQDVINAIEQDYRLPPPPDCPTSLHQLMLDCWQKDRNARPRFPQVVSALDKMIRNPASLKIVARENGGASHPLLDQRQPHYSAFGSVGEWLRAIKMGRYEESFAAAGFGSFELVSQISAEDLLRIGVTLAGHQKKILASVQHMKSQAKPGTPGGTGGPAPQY

T3 sequence (P35968 20-1356, species assumed): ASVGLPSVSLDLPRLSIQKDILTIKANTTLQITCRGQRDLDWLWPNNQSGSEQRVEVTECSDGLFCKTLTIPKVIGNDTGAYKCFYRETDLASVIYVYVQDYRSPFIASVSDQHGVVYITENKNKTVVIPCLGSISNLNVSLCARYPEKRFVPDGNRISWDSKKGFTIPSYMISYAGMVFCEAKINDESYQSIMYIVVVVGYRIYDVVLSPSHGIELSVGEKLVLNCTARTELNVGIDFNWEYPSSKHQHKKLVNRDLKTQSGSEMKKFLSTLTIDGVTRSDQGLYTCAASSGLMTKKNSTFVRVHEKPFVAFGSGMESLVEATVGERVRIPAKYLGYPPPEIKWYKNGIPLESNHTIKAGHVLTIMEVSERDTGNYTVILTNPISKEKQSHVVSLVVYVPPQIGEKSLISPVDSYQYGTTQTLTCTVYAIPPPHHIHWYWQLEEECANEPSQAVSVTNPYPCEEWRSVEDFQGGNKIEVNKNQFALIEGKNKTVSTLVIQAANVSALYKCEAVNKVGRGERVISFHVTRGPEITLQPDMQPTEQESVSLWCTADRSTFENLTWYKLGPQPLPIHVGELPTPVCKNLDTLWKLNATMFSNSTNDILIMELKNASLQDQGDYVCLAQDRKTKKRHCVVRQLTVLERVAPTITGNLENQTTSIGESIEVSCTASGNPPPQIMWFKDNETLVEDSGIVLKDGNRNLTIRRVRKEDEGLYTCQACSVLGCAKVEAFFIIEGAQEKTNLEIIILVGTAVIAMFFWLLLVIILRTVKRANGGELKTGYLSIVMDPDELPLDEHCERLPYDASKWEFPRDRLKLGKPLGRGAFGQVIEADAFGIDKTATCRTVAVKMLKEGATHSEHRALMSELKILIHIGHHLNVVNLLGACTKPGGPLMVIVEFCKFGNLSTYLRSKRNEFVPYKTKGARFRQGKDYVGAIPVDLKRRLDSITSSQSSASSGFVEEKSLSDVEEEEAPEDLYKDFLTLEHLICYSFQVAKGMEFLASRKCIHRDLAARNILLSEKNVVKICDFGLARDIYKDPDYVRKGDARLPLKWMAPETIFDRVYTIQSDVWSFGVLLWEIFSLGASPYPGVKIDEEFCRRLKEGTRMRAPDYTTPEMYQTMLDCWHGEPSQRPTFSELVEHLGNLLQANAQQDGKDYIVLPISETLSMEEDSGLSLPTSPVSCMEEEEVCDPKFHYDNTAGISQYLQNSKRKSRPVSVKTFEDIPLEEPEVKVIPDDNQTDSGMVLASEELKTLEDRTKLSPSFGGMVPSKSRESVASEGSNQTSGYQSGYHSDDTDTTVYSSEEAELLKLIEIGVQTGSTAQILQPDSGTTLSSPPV
T4 sequence (P08069 31-1367): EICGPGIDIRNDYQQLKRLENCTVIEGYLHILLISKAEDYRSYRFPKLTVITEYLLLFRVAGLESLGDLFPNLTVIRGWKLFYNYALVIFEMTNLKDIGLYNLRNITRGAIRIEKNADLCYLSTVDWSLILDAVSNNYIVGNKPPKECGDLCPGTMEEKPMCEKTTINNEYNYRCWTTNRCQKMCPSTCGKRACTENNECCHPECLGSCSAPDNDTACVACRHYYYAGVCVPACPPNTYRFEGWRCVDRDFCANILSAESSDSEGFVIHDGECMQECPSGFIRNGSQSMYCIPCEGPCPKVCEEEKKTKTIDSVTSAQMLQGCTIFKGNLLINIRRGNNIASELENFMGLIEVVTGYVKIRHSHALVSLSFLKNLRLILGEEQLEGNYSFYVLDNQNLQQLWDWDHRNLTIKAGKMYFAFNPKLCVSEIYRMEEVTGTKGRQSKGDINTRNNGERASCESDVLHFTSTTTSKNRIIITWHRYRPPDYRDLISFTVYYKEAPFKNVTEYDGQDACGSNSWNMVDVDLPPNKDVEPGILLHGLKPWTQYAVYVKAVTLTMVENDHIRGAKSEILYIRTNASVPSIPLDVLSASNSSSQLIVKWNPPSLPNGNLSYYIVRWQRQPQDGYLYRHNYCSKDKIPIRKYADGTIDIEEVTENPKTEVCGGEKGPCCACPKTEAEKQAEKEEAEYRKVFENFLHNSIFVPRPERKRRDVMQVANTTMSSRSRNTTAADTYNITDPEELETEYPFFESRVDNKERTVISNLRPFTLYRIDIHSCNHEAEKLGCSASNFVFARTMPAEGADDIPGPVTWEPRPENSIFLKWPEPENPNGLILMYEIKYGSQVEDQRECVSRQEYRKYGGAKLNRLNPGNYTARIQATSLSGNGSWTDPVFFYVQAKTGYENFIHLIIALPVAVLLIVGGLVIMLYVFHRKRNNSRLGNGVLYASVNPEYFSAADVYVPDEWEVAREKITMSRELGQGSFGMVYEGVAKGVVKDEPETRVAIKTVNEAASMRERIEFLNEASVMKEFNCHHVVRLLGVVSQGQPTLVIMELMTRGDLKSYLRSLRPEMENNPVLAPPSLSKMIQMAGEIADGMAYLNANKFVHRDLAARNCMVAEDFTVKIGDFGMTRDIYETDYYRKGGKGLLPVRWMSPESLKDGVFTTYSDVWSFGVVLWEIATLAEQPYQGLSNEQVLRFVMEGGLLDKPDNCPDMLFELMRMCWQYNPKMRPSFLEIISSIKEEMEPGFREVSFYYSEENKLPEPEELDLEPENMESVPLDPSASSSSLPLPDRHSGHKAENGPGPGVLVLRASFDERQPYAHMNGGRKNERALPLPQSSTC
T5 sequence (P09619 33-1106, species assumed): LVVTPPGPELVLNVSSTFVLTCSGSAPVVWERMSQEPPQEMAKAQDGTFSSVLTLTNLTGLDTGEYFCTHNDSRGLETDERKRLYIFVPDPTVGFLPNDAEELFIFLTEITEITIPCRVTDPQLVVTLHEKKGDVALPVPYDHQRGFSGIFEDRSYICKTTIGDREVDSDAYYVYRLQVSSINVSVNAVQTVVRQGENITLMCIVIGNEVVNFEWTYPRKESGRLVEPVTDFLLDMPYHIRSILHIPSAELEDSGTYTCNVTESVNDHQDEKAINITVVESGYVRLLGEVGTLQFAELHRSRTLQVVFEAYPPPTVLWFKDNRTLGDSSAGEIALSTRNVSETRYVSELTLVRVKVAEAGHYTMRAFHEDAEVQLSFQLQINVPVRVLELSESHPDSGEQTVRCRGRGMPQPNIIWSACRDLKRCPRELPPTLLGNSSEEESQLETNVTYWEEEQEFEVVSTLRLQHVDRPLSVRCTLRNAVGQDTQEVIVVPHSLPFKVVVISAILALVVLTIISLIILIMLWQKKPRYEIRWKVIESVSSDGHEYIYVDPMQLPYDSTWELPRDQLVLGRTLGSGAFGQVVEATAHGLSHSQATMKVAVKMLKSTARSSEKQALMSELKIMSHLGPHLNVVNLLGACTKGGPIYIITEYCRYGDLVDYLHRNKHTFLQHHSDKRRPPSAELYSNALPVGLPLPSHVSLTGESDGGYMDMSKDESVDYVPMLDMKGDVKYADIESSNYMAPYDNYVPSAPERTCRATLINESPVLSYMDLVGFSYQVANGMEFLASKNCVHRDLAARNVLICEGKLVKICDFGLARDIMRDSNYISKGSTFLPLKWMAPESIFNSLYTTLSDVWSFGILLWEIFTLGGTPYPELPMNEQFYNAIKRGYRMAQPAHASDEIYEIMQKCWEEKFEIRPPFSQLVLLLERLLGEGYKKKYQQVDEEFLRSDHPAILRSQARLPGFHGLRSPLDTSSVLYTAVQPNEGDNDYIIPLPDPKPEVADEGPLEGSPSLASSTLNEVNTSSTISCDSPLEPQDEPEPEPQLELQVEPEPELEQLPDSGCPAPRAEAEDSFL
T1 sequence (P06241 whole entry, species assumed, the tested form may be a part): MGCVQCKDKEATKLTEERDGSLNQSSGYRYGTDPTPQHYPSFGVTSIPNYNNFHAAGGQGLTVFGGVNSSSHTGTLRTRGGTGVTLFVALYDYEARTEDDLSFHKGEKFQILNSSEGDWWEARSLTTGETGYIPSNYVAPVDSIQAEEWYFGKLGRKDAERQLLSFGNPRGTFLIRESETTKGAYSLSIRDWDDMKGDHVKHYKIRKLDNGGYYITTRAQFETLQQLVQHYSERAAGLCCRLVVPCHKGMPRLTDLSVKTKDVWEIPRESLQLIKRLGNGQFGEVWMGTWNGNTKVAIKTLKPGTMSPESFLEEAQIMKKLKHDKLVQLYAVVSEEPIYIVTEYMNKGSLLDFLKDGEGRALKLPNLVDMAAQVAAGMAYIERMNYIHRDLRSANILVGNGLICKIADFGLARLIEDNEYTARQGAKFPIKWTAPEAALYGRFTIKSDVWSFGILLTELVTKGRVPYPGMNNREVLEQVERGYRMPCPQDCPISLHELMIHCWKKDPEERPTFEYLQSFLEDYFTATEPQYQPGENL

IC50 [1] [µM] | IC50 [2] [µM] | IC50 [3] [µM] | IC50 [4] [µM] | IC50 [5] [µM] | IC50 [6] [µM] | Structure (SMILES)
< 1.08 | > 12.2 | < 1.08 | 1.08 to 6.5 | < 1.08 | 1.08 to 6.5 | COc1cc(Nc2ncnc(Nc3ccc(O)cc3)n2)cc(OC)c1OC [Compound 85]
< 1.04 | > 11.7 | < 1.04 | 1.04 to 6.26 | < 1.04 | 1.04 to 6.26 | COc1ccccc1Nc1ncnc(Nc2cc(OC)c(OC)c(OC)c2)n1 [Compound 90]
> 11.4 | > 11.4 | < 1.02 | 1.02 to 6.1 | < 1.02 | 1.02 to 6.1 | COc1cc(Nc2ncnc(Nc3ccc4cn[nH]c4c3)n2)cc(OC)c1OC [Compound 70]
> 12.2 | 9.5 to 12.2 | 1.09 to 6.51 | 1.09 to 6.51 | 1.09 to 6.51 | 6.51 to 9.5 | COc1cc(Nc2ncnc(Nc3ccc(N)cc3)n2)cc(OC)c1OC [Compound 92]
1.02 to 6.1 | > 11.4 | < 1.02 | < 1.02 | 1.02 to 6.1 | < 1.02 | COc1cc(Nc2ncnc(Nc3ccc4[nH]ncc4c3)n2)cc(OC)c1OC [Compound 79]
0.794 to 4.76 | > 8.93 | < 0.794 | > 8.93 | 0.794 to 4.76 | < 0.794 | COc1cc(Nc2ncnc(N(c3ccc(Cl)cc3)c3nc4ccccc4[nH]3)n2)cc(OC)c1OC [Compound 374]
> 9.31 | > 9.31 | < 0.827 | > 9.31 | < 0.827 | > 9.31 | COc1cc(Nc2ncnc(-n3c(Nc4ccc(C)cc4)nc4ccccc43)n2)cc(OC)c1OC [Compound 385]
> 11.4 | 6.07 to 8.85 | 1.01 to 6.07 | < 1.01 | > 11.4 | 8.85 to 11.4 | COc1cc(Nc2ncnc(Nc3ccc(C(C)C)cc3)n2)cc(OC)c1OC [Compound 66]
> 10.3 | > 10.3 | < 0.913 | < 0.913 | 0.913 to 5.48 | 0.913 to 5.48 | COc1cc(Nc2ncnc(Nc3cc(Cl)c(O)c(Cl)c3)n2)cc(OC)c1OC [Compound 68]
< 0.827 | > 9.31 | < 0.827 | > 9.31 | < 0.827 | < 0.827 | COc1cc(Nc2ncnc(-n3c(NCc4ccccc4)nc4ccccc43)n2)cc(OC)c1OC [Compound 371]
> 12 | > 12 | < 1.07 | 1.07 to 6.39 | 6.39 to 9.32 | 1.07 to 6.39 | O=C1OCc2ccc(Nc3ncnc(Nc4cc(-c5ccco5)n[nH]4)n3)cc21 [Compound 364]
0.827 to 4.96 | > 9.31 | < 0.827 | > 9.31 | < 0.827 | 0.827 to 4.96 | COc1cc(Nc2ncnc(-n3c(Nc4ccccc4C)nc4ccccc43)n2)cc(OC)c1OC [Compound 384]
5.93 to 8.65 | > 11.1 | < 0.989 | > 11.1 | < 0.989 | > 11.1 | COc1cc(Nc2ncnc(Nc3cccc4cccnc34)n2)cc(OC)c1OC [Compound 97]
8.06 to 10.4 | > 10.4 | < 0.921 | > 10.4 | < 0.921 | > 10.4 | COc1cc(Nc2ncnc(-n3cc(CC(N)=O)c4ccccc43)n2)cc(OC)c1OC [Compound 353]
6.05 to 8.83 | > 11.4 | 1.01 to 6.05 | < 1.01 | 8.83 to 11.4 | > 11.4 | COc1cc(Nc2ncnc(Nc3ccc(C(N)=O)cc3)n2)cc(OC)c1OC [Compound 33]
1.05 to 6.33 | 1.05 to 6.33 | < 1.05 | < 1.05 | 6.33 to 9.23 | 1.05 to 6.33 | COc1cc(Nc2ncnc(Nc3cc(-c4ccco4)n[nH]3)n2)cc(OC)c1 [Compound 365]
< 0.986 | > 11.1 | < 0.986 | < 0.986 | < 0.986 | < 0.986 | COc1cc(Nc2ncnc(Nc3ccc(F)c(Cl)c3)n2)cc(OC)c1OC [Compound 61]
< 0.954 | > 10.7 | < 0.954 | < 0.954 | 5.72 to 8.34 | < 0.954 | COc1cc(Nc2ncnc(Nc3cc(-c4ccccc4)n[nH]3)n2)cc(OC)c1OC [Compound 102]
1.04 to 6.26 | 9.13 to 11.7 | 1.04 to 6.26 | < 1.04 | < 1.04 | > 11.7 | COc1cccc(Nc2ncnc(Nc3cc(OC)c(OC)c(OC)c3)n2)c1 [Compound 87]
9.53 to 12.2 | > 12.2 | 1.09 to 6.53 | 9.53 to 12.2 | 1.09 to 6.53 | 6.53 to 9.53 | COc1cc(Nc2ncnc(Nc3ccccc3C)n2)cc(OC)c1OC [Compound 67]
8.47 to 10.9 | > 10.9 | < 0.968 | < 0.968 | 0.968 to 5.81 | > 10.9 | COc1cc(Nc2ncnc(Nc3cc(OC)c(OC)c(OC)c3)n2)cc(OC)c1 [Compound 86]
0.779 to 4.67 | > 8.76 | 0.779 to 4.67 | > 8.76 | 0.779 to 4.67 | > 8.76 | COc1cc(Nc2ncnc(-n3c(Nc4cccc(C(=O)O)c4)nc4ccccc43)n2)cc(OC)c1OC [Compound 390]
0.787 to 4.72 | > 8.85 | < 0.787 | 0.787 to 4.72 | < 0.787 | 6.88 to 8.85 | COc1cc(Nc2ncnc(-n3c(Nc4ccc5[nH]ccc5c4)nc4ccccc43)n2)cc(OC)c1OC [Compound 376]
< 1.08 | > 12.2 | < 1.08 | 1.08 to 6.5 | < 1.08 | < 1.08 | COc1cc(Nc2ncnc(Nc3cccc(O)c3)n2)cc(OC)c1OC [Compound 78]
> 9.23 | > 9.23 | < 0.821 | > 9.23 | < 0.821 | > 9.23 | COc1cc(Nc2ncnc(-n3c(Nc4ccc(F)cc4)nc4ccccc43)n2)cc(OC)c1OC [Compound 387]
6.93 to 10.1 | > 13 | < 1.15 | 1.15 to 6.93 | 1.15 to 6.93 | > 13 | NC(=O)c1cccc(Nc2ncnc(-n3c(N)nc4ccccc43)n2)c1 [Compound 395]
1.01 to 6.05 | > 11.4 | < 1.01 | < 1.01 | > 11.4 | > 11.4 | COc1cc(Nc2ncnc(Nc3ccc(N(C)C)cc3)n2)cc(OC)c1OC [Compound 27]
> 12.4 | > 12.4 | < 1.1 | 1.1 to 6.62 | < 1.1 | 1.1 to 6.62 | NC(=O)c1ccc(Nc2ncnc(Nc3cc(-c4ccco4)n[nH]3)n2)cc1 [Compound 341]
